Results as given in US9737603B1, “Alcohol-based local anesthesia and associated use thereof” (priority 2014, dated 2017).
Blank lines part the entries; values can stand above or below the compound they belong to.

Legend:
[1] = system: skin tissue; conditions: topical; cited from earlier work
[2] = Solution stability (precipitation of benzocaine); format: physicochemical; conditions: liquid embodiment, isopropyl alcohol 70-75% (v)
Excerpt: In a non-limiting exemplary embodiment, the alcohol-based topical anesthesia chemical composition 10 may be stored in a tightly sealed container at 25 C or a temperature range of 20 C to 40 C. Temperatures below 15 C may cause the benzocaine to precipitate.
However, beyond 16% (w/v) of benzocaine, the solution stability becomes an issue due to the precipitation of benzocaine; and menthol can be effectively utilized in the range 1% to 3% (w/v).

[3] = system: skin tissue; assay: Topical anesthesia / analgesia after application to skin; format: in vivo; conditions: 1% (w/v) menthol, preliminary work
Excerpt: The alcohol-based topical anesthesia chemical composition 10 also has a skin analgesic, menthol 1% (w/v).

Structure (SMILES): C[C@]12CCC(=O)C=C1CC[C@@H]1[C@@H]2[C@@H](O)C[C@@]2(C)[C@H]1CC[C@]2(O)C(=O)CO [Hydrocortisone]
analgesia (alternatives to menthol) [1]: does not provide immediate analgesia

benzocaine concentration beyond which solution stability becomes an issue due to precipitation of benzocaine [2]: > 16 % (w/v)
Structure (SMILES): CCOC(=O)c1ccc(N)cc1 [benzocaine]

Structure (SMILES): CC1CCC(C(C)C)C(O)C1 (stereo not drawn) [menthol]
counterirritant analgesic property [3]: safe yet effective
